Assay results as given in patent publication US6653322B1, “Therapeutic combinations of RAR antagonists and RXR agonists and use thereof” (Bristol-Myers Squibb Company, priority 1996, dated 2003).
Entries after “also recorded” stand apart in the source; their conditions may differ.

Assays:
RARβ2 and RARγ mRNA = assay: RARβ/RARγ expression by reverse transcriptase PCR in NB4 cells; assay type: cell-based, human
Method: Total RNA was isolated and reverse transcribed in a buffer solution comprising 10 mM Tris-HCl (pH 8.3), 50 mM KCl, 2 mM MgCl2 and 1 mM of all four deoxynucleoside triphosphates, using 25 units of AMV reverse transcriptase in the presence of 50 units of RNAsin for 60 minutes at 42° C. For reverse transcription, 25 picomoles per reaction of the common antisense primer 5′-[…]-3′ (SEQ ID NO:6) for either RARα, β or γ was used. For each PCR reaction the common antisense primer, one-fourth of the reverse transcribed product and the following specific sense primers were used: […]
The amplification was carried out in a final volume of 0.1 ml, using Taq DNA polymerase (Perkin Elmer Cetus) according the manufacturer's instructions. Eighteen PCR cycles (30 seconds at 94° C., 30 seconds at 65° C. and 30 seconds at 72° C.) were performed, and a 10 microliter aliquot of each reaction was analyzed by electrophoresis on a 6% native polyacrylamide gel, which was then stained with ethidium bromide and examined by ultraviolet illumination.

NB4 cells [1] = assay: NB4 cell differentiation (TPA-induced nitroblue tetrazolium reduction); assay type: cell-based, human
Method: NB4 cells were obtained from ATCC and were grown in RPMI-1640 (plus 2 mM L-glutamine) containing 100 […] penicillin and streptomycin and 8% fetal bovine serum (FBS). Cells were treated for four days with retinoid(s) or ethanol vehicle, then washed and resuspended at a density of 5×10^5 cells/ml. 50 microliter aliquots of this suspension were spread over poly-L-lysine coated slides (Sigma, St. Louis, Mo.). After washing with PBS (137 mM NaCl, 2.7 mM KCl, 4.3 mM Na2HPO4, 1.4 mM KH2PO4), the cells were fixed for 10 minutes in 2% formalin (37% formaldehyde in 15% methanol in water) at room temperature.
Following fixation, cells were washed three times in PBS and were scored by TPA (12-O-tetradecanoyl-phorbol-13-acetate, 200 ng/ml)-induced nitroblue tetrazolium reduction (Sigma Fast BCIP/NBT) for 30 minutes at 37° C. Samples were examined for cellular and nuclear morphology with an optical microscope (Diavert Leitz); the percentage of differentiated cells was determined by counting at least 300 cells for each treatment.

PML-RARα = target: T1, PML-RARα (Homo sapiens, UniProt P10276+P29590); assay: Anti-PML immunofluorescence: association of PML/PML-RARα with nuclear bodies in NB4 cells; assay type: cell-based; details: with SR11237
T1 construct: induced the association of endogenous PMUPML-RARα with nuclear bodies; endogenous in cells; host or cells: NB4 human acute promyelocytic leukemia cells
T1 sequence (P10276 61-462 limits assumed): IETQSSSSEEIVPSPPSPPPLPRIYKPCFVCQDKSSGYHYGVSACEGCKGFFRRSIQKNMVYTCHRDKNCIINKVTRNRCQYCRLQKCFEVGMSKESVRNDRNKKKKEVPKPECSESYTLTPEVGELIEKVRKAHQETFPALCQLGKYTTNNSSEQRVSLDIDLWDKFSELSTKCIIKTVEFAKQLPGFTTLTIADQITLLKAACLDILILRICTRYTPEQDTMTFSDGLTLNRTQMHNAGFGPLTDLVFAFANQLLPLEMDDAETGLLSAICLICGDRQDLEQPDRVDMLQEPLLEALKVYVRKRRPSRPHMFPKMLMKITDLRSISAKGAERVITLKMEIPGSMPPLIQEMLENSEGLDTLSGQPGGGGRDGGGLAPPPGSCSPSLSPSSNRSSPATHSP
Method: Following fixation, cells were permeabilized with 0.1% Triton X-100 in PBS (buffer A). After washing in PBS, the cells were blocked in 0.5 mg/ml normal goat IgG (Jackson Laboratories, Bar Harbor, Me.) in PBS for 30 minutes at room temperature, and thereafter incubated overnight at 4° C. with a polyclonal anti-PML antibody (the kind gift of Dr. Anne Dejean), diluted in buffer A containing 0.5 mg/ml normal goat IgG (buffer B) at 4° C. After three washes in buffer A, the cells were incubated with donkey anti-rabbit IgG (H+L) conjugated with cyanine 3 (Jackson Laboratories, Bar Harbor, Me.) in buffer B for 1 hour at room temperature. Following washes in PBS the mounted samples were examined with a confocal laser microscope (TCS, Leica) equipped with cyanine optics for PML localization.

NB4 cells [2] = assay: NB4 cell apoptosis (flow cytometry, DNA fragmentation); assay type: cell-based, human; details: for Induction of NB4 cell apoptosis: retinoid alone
Method: The cell cycle distribution and presence of “sub-2N” cells and particles in control and retinoid-treated NB4 cells were determined by cell cycle flow cytometry based on DNA content, using an EPICS Profile II cell sorter (Coulter Electronics, Inc., Hialeah, Fla.) equipped with a 15 watt argon laser tuned to an excitation wavelength of 488 nm and filter sets providing an emission wavelength of 575 nm. Cultures of untreated or retinoid-treated cells were centrifuged (250×g) and fixed in 70% ethanol and stored at −20° C. Following two washes in PBS, the cells and subcellular particles were incubated in 1 mg/ml RNase A (59 Kunitz units/mg, Sigma Chemical Co., St. Louis, Mo.) for 30 minutes at 37° C., centrifuged and resuspended in PBS at a concentration of approximately 10^6 cells per ml. Ethidium bromide was added to a final concentration of 50 micrograms/ml immediately prior to sample analysis.
The induction of apoptosis by retinoids was also determined by the appearance of a “ladder” of fragmented DNA as previously described (Nagy, L., et al., Mol. Cell. Biol. 15:3540-3551 (1995)). Cells were refed with fresh media and retinoids every 2 days, and the cell density was maintained well below saturation in order to prevent cell death due to nutrient and/or mitogen depletion. Five micrograms per lane of DNA was electrophoresed in a 1.5% agarose gel, followed by staining with ethidium bromide, and DNA bands were visualized and photographed via ultraviolet illumination of ethidium bromide fluorescence.

AP1 activity = details: via all three RARs; Chen et al. 1995; cited from earlier work
GAL-RARα = target: T2, GAL-RARα (Homo sapiens, UniProt P10276); assay: HeLa reporter cells, agonistic/antagonistic activity of RAR-specific ligands; assay type: cell-based; details: FIG. 1, FIG. 2
T2 construct: expressed in transfected cells; host or cells: HeLa
T2 sequence (P10276 183-417 limits assumed): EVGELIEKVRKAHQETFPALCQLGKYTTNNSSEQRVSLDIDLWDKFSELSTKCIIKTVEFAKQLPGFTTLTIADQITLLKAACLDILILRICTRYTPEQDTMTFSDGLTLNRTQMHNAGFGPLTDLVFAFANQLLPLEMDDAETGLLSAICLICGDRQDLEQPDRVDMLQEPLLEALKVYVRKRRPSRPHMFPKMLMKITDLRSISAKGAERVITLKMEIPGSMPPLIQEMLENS
Method: (§1) HeLa reporter cell lines containing a retinoid-inducible luciferase reporter gene (17 m)5-globin-Luc in the stably transfected reporter constructs GAL-RARα, GAL-RARβ or GAL-RARγ were constructed and used as described previously (Chen, J. Y., et al., EMBO J. 14:1187-1197 (1995)). Cells were treated with RAR-specific ligands, and luciferase-induced bioluminescence was monitored in vivo using a single-photon-counting camera (Hamamatsu) by seeding equal amounts of cells in 24-well tissue culture plates and incubating them with increasing concentrations of retinoids alone, or in the presence of T-RA to determine the antagonistic potential of the ligands.

GAL-RARγ = target: T3, GAL-RARγ (Homo sapiens, UniProt P13631); assay: as above; assay type: cell-based; details: FIG. 1
T3 construct: expressed in transfected cells; host or cells: HeLa
T3 sequence (P13631 185-419 limits assumed): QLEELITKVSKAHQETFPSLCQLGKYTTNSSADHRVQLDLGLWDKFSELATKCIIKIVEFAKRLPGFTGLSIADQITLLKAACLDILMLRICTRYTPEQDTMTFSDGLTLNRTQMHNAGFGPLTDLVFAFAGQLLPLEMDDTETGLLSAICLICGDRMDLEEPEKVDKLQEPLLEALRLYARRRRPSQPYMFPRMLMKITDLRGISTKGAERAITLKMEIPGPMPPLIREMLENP
Method: as §1

GAL-RARβ = target: T4, GAL-RARβ (Homo sapiens, UniProt P10826); assay: as above; assay type: cell-based; details: FIG. 1
T4 construct: expressed in transfected cells; host or cells: HeLa
T4 sequence (P10826 183-417 limits assumed): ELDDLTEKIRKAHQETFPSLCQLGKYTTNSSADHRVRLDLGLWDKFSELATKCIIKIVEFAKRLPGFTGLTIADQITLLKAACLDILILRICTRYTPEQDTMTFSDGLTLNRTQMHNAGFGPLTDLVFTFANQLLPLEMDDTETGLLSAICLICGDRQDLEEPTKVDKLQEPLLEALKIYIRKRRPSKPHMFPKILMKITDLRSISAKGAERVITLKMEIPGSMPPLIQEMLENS
Method: as §1

F9 EC cells = details: ligand on its own, Roy et al. 1995; cited from earlier work
P19 cells = details: ligand on its own, Roy et al. 1995; cited from earlier work
[3] = in presence of RXR agonist SR11237
[4] = retinoid alone at 1000 (concentration unit not given), 4 days
[5] = retinoid at 1 +100 nM SR11237, 4 days
[6] = retinoid at 10 +100 nM SR11237, 4 days
[7] = retinoid at 100 +100 nM SR11237, 4 days

## CC1(C)CC=C(c2ccccc2)c2cc(/C=C/c3ccc(C(=O)O)cc3)ccc21 [Compound A]
RARβ2 and RARγ mRNA; retinoid alone
  Expression of RARβ2 (and RARγ) by RT-PCR: no induction
RARβ2 and RARγ mRNA; with SR11237
  RARβ and RARγ mRNA production: efficient accumulation of RARβ and RARγ mRNA
NB4 cells [1]; [3]
  Induction of NB4 cell differentiation: induced differentiation with higher efficiency than T-RA or 9C-RA
NB4 cells [1]; [4]
  Percentage of NB4 cells differentiated: <1%
NB4 cells [1]; [5]
  Percentage of NB4 cells differentiated: <1%
NB4 cells [1]; [6]
  Percentage of NB4 cells differentiated: 65%
NB4 cells [1]; [7]
  Percentage of NB4 cells differentiated: 78%
NB4 cells [1]; retinoid on its own
  Induction of NB4 cell differentiation: ineffective on their own
PML-RARα
  Association of PML-RARα with nuclear bodies: indistinguishable from that seen in presence of RARα agonists
NB4 cells [2]; in combination with SR11237
  Antiproliferative and apoptotic effect on NB4 cells: strong antiproliferative and apoptotic effect
NB4 cells [2]
  Induction of NB4 cell apoptosis: inefficient alone
AP1 activity
  Repression of AP1 activity: efficiently repressing AP1 activity via all three RARs

## CC1(C)CC=C(c2cnc3ccccc3c2)c2cc(C(=O)Nc3ccc(C(=O)O)cc3)ccc21 [Compound B]
NB4 cells [1]; excess of the compound
  Block of differentiation induced by 1 nM Am80: completely blocked
NB4 cells [1]; [3]
  Induction of NB4 cell differentiation: induced differentiation
NB4 cells [1]; [4]
  Percentage of NB4 cells differentiated: <1%
NB4 cells [1]; [5]
  Percentage of NB4 cells differentiated: <1%
NB4 cells [1]; [6]
  Percentage of NB4 cells differentiated: 3%
NB4 cells [1]; [7]
  Percentage of NB4 cells differentiated: 5%
NB4 cells [1]; retinoid at 1000 +100 nM SR11237, 4 days
  Percentage of NB4 cells differentiated: 10%
NB4 cells [1]; retinoid on its own
  Induction of NB4 cell differentiation: ineffective on their own
GAL-RARα
  Binding to RARα: lower binding affinity for RARα
GAL-RARγ
  Binding to RARγ: does not bind
GAL-RARβ
  Binding to RARβ: does not bind

## CC1(C)CCC(C)(C)c2cc(C3(c4ccc(C(=O)O)cc4)OCCO3)ccc21 [SR11237]
NB4 cells [1]; [4]
  Percentage of NB4 cells differentiated: <2%
NB4 cells [1]; retinoid on its own
  Induction of NB4 cell differentiation: ineffective on their own; also recorded: did not induce differentiation
F9 EC cells
  Induction of differentiation and expression of RA target genes: unable to induce
NB4 cells [2]
  Induction of NB4 cell apoptosis: inefficient alone
P19 cells
  Induction of differentiation and expression of RA target genes: unable to induce
